Legend:
[1] = Clinical dose-escalation trial of Compound I: pharmacokinetics; format: in vivo, human
Description: (§1) A randomized, double-blind, placebo-controlled, dose-escalation trial of Compound I in 24 adult β-thalassemia patients in which the safety, tolerability, PK and cumulative iron balance of 12 days of Compound I are assessed (10 mg/kg (n=5), 20 mg/kg (n=6), 40 mg/kg (n=7), and placebo (n=6).

[2] = system: adult β-thalassemia patients; assay: Clinical dose-escalation trial of Compound I: iron balance and efficiency of chelation; format: in vivo, human
Description: as §1
Efficiency of chelation is based on average daily net iron excretion, and is calculated as the ratio between […], relative to body weight. The theoretical amount of iron is obtained from the consideration that two molecules of Compound I are needed to chelate a single atom of iron. The molecular weight of Compound I being 373.4, and that of iron 55.85. The efficiency is therefore calculated as:
Efficiency=(Feexcr*2*373.4)/(DoseCompound×55.85)×100%) • DoseCompound and Feexcr are given in mg/kg body weight.

[3] = system: Long-Evans cinnamon (LEC) rat; assay: Spontaneous acute hepatitis in LEC rat model; format: in vivo; conditions: male LEC rats, oral 14 and 28 mg/kg/day
Description: Long-Evans cinnamon (LEC) rat is a mutant strain displaying hereditary hepatitis and spontaneous liver cancer. Compound I has been tested for efficacy on acute hepatitis in LEC rat model.
Methods: Compound I was administered orally to male LEC rats by gavage on does of 0, 14 and 28 mg/kg/day, starting at 6-week-old and continuing till 18-week-old. Each four rats were sacrificed on 9, 12, 14, 16 and 18-week-old in Compound I—treated groups and control group.
On sacrificing, peripheral blood was collected for monitoring the biochemical markers, including the serum alanine transaminase (ALT). Liver tissue were histologically examined.

[4] = system: thalassemia patients (iron-overloaded); assay: ALT values of thalassemia patients after one year of treatment; format: in vivo, human
Description: (§2) Patients were iron-overloaded patients and were treated with different doses of Compound I for one year.
(§3) ALT was measured according to standard biomedical techniques, e.g. using the International Federation of Clinical Chemistry reference method as described in Brinkmann T, Dreier J, Diekmann J, Gotting C, Klauke R, Schumann G, Kleesiek K. Alanine aminotransferase cut-off values for blood donor screening using the new International Federation of Clinical Chemistry reference method at 37 degrees C. Vox Sang. 2003 85(3): 159-64.
(§4) The baseline ALT value is defined as the patient ALT value determined for the patient at the stage of enrollment in the clinical trial, i.e. the ALT baseline value is the ALT value of the patient before starting Compound I treatment.

[5] = system: rare anemia patients (iron-overloaded); assay: ALT values of rare anemia patients after one year of treatment; format: in vivo, human
Description: as §2, §3, §4

With `O=C(O)c1ccc(-n2nc(-c3ccccc3O)nc2-c2ccccc2O)cc1` [Compound I, 4-[3,5-Bis-(2-hydroxyphenyl)-[1,2,4]-triazol-1-yl]benzoic acid] the “Exposure (Cmax and AUC) increase with dose” value ([1]; after single dose administration) was “slightly over-proportionally”, the “Exposure (Cmax and AUC) increase with dose” value ([1]; during steady state) was “approximately proportional” and the half-life ([1]; human, blood, at steady state, read-out: mean elimination half-life t1/2) was 12 to 13 h. The absorption ([1]; β-thalassemia patients, 10, 20, 40 mg/kg, 12 days) was “rapidly absorbed”, the “Negative iron balance (average daily net iron excretion)” value (“Negative iron balance” for short) ([2]; 10 mg/kg dose) was “approximately 0.127 mg/kg/day” and the efficiency of chelation ([2]; 10 mg/kg dose group) was 16%. For the same compound, the efficiency of chelation ([2]; 20 mg/kg) was 22%, the “Negative iron balance” value ([2]; 20 mg/kg dose) was ~0.343 mg/kg/day and the efficiency of chelation ([2]; 40 mg/kg) was 15%. For the same compound, the “Negative iron balance” value ([2]; 40 mg/kg dose) was ~0.564 mg/kg/day, the iron excretion ([2]; iron balance studies, almost entirely in the feces) was “dose-dependent increase” and the “Hepatic iron accumulation assessed by Prussian blue staining vs control group” value [3] was “markedly reduced”. For the same compound, the “serum ALT level vs control group” value ([3]; at 18-week-old) was “significantly lower”, the “Mean of ALT” value ([4]; 5 mg/kg/day) was 35.25 Units/liter and the “Mean of ALT” value ([4]; 10 mg/kg/day) was 26.62 Units/liter. For the same compound, the “Mean of ALT” value ([4]; 20 mg/kg/day) was 3.17 Units/liter, the “Mean of ALT” value ([4]; 30 mg/kg/day) was −23.56 Units/liter and the “Mean of ALT” value ([5]; 5 mg/kg/day) was 67.42 Units/liter. The “Mean of ALT” value ([5]; 10 mg/kg/day) was 14.22 Units/liter, the “Mean of ALT” value ([5]; 20 mg/kg/day) was −3.27 Units/liter and the “Mean of ALT” value ([5]; 30 mg/kg/day) was −14.19 Units/liter.
